Drawing on patent US8916702B2 (priority 2012, dated 2014), this text covers EC50 for 46 molecules.

The test system of one experiment is HCV pseudoparticles (genotype 1a HCV E1 and E2 envelope, H77C isolate). The experiment can be described thus: microbe, parasite or virus in culture. It is filed as cell-based. Particulars: Hepatitis C virus, Huh-7, 48 h, HCV pseudoparticles (genotype 1a, H77C) in Huh7 cells; average of duplicate; luciferase 2 days after infection.
`CC(C)(CNC(=O)C(=O)Nn1cccc1)CNC(=O)c1ccc(Nc2nc(NC3(c4ccc(Cl)cc4)CC3)nc(OCC(F)(F)F)n2)cc1` [Compound 3242] displayed an EC50 of 0.03 nM.

Molecule `CC(C)(CNC(=O)C(N)=O)CNC(=O)c1ccc(Nc2nc(NC3(c4ccccc4)CC3)nc(OCC(F)(F)F)n2)cc1` [Compound 3244] came in with an EC50 of 0.07 nM. On the same count and under the same terms, the same measure for `CC(C)(CNC(=O)C(=O)Nc1ccc(Cl)nc1)CNC(=O)c1ccc(Nc2nc(NC3(c4ccc(Cl)cc4)CC3)nc(OCC(F)(F)F)n2)cc1` [Compound 3255]: 0.029 nM; for `CC(C)(CNC(=O)C(=O)Nc1cccc(F)c1F)CNC(=O)c1ccc(Nc2nc(NC3(c4ccc(Cl)cc4)CC3)nc(OCC(F)(F)F)n2)cc1` [Compound 3261]: 0.072 nM. Same read-out and setting: the value for `CC(C)(CNC(=O)C(=O)Nc1ccc(C(=O)c2ccc(N)cc2)cc1)CNC(=O)c1ccc(Nc2nc(NC3(c4ccc(Cl)cc4)CC3)nc(OCC(F)(F)F)n2)cc1` [Compound 3264] was 0.24 nM. On to `CC(O)N1CCN(c2ccc(NC(=O)C(=O)NC[C@H](NC(=O)c3ccc(Nc4nc(NC5(c6ccc(Cl)cc6)CC5)nc(OCC(F)(F)F)n4)cc3)C(=O)O)cc2)CC1` (some centres unmarked) [Compound 3271], for which the EC50 was determined as 1.38 nM. As to `NC(=O)NCc1ccc(NC(=O)C(=O)NC[C@H](NC(=O)c2ccc(Nc3nc(NC4(c5ccc(Cl)cc5)CC4)nc(OCC(F)(F)F)n3)cc2)C(=O)O)cc1` [Compound 3281], the EC50 is 1.29 nM.

The experiment is the same for the next values; noted with them: Hepatitis C virus, Huh-7, read-out: Activity (EC50 class), HCV pseudoparticles (genotype 1a, H77C) in Huh7 cells; EC50 expressed as class A/B.
For the molecule `Cc1cc(C)n(-c2ccc(NC(=O)C(=O)NCC[C@H](NC(=O)c3ccc(Nc4nc(NC5(c6ccc(Cl)cc6)CC5)nc(OCC(F)(F)F)n4)cc3)C(=O)O)cc2)n1` [Compound 3238], the EC50 lay within 0.01 to 10 nM.

With `CC(C)(CNC(=O)C(=O)Nc1ncc(F)s1)CNC(=O)c1ccc(Nc2nc(NC3(c4ccc(Cl)cc4)CC3)nc(OCC(F)(F)F)n2)cc1` [Compound 3239], the EC50 fell in the range of 0.01 to 10 nM. Same read-out and setting: the same measure for `Cc1ccc(-c2ccccc2NC(=O)C(=O)NCC(C)(C)CNC(=O)c2ccc(Nc3nc(NC4(c5ccc(Cl)cc5)CC4)nc(OCC(F)(F)F)n3)cc2)o1` [Compound 3240]: 0.01 to 10 nM. The same measure, in the same setting: the value for `CC(C)(CNC(=O)C(=O)Nc1ccncc1)CNC(=O)c1ccc(Nc2nc(NC3(c4ccc(Cl)cc4)CC3)nc(OCC(F)(F)F)n2)cc1` [Compound 3241] was 0.01 to 10 nM; that for `CC(C)(CNC(=O)C(=O)Nn1cccc1)CNC(=O)c1ccc(Nc2nc(NC3(c4ccc(Cl)cc4)CC3)nc(OCC(F)(F)F)n2)cc1` [Compound 3242] was 0.01 to 10 nM. With `CC(C)(CNC(=O)C(N)=O)CNC(=O)c1ccc(Nc2nc(NC3(c4ccccc4F)CC3)nc(OCC(F)(F)F)n2)cc1` [Compound 3243], the EC50 lay within 0.01 to 10 nM. Still for that read-out and setting: the value for `CC(C)(CNC(=O)C(N)=O)CNC(=O)c1ccc(Nc2nc(NC3(c4ccccc4)CC3)nc(OCC(F)(F)F)n2)cc1` [Compound 3244] was 0.01 to 10 nM. Same read-out and setting: the value for `CC(C)(CNC(=O)C(=O)Nc1cccnc1)CNC(=O)c1ccc(Nc2nc(NC3(c4ccc(Cl)cc4)CC3)nc(OCC(F)(F)F)n2)cc1` [Compound 3245] was 0.01 to 10 nM; that for `CC(C)(CNC(=O)C(=O)Nc1ccccc1-c1nnco1)CNC(=O)c1ccc(Nc2nc(NC3(c4ccc(Cl)cc4)CC3)nc(OCC(F)(F)F)n2)cc1` [Compound 3246] was 0.01 to 10 nM. The same measure, in the same setting: the same measure for `CC(C)(CNC(=O)C(N)=O)CNC(=O)c1ccc(Nc2nc(NC3(c4ccc(F)cc4)CC3)nc(OCC(F)(F)F)n2)cc1` [Compound 3247]: 0.01 to 10 nM; for `CC(C)(CNC(=O)C(=O)Nc1ccccn1)CNC(=O)c1ccc(Nc2nc(NC3(c4ccc(Cl)cc4)CC3)nc(OCC(F)(F)F)n2)cc1` [Compound 3248]: 0.01 to 10 nM; for `Cc1nc(C(F)(F)F)ccc1NC(=O)C(=O)NCC(C)(C)CNC(=O)c1ccc(Nc2nc(NC3(c4ccc(Cl)cc4)CC3)nc(OCC(F)(F)F)n2)cc1` [Compound 3249]: 0.01 to 10 nM. Regarding `CC(C)(CNC(=O)C(=O)Nc1ccc(C(F)(F)F)c(F)c1)CNC(=O)c1ccc(Nc2nc(NC3(c4ccc(Cl)cc4)CC3)nc(OCC(F)(F)F)n2)cc1` [Compound 3250], the EC50 was 0.01 to 10 nM. Same read-out and setting: the same measure for `COc1cc(NC(=O)C(=O)NCC(C)(C)CNC(=O)c2ccc(Nc3nc(NC4(c5ccc(Cl)cc5)CC4)nc(OCC(F)(F)F)n3)cc2)ccn1` [Compound 3251]: 0.01 to 10 nM. In the case of `COc1cccc(NC(=O)C(=O)NCC(C)(C)CNC(=O)c2ccc(Nc3nc(NC4(c5ccc(Cl)cc5)CC4)nc(OCC(F)(F)F)n3)cc2)n1` [Compound 3252], the EC50 fell in the range of 0.01 to 10 nM. Still for that read-out and setting: the same measure for `CC(C)(CNC(=O)C(=O)Nn1cnnc1)CNC(=O)c1ccc(Nc2nc(NC3(c4ccc(Cl)cc4)CC3)nc(OCC(F)(F)F)n2)cc1` [Compound 3253]: 0.01 to 10 nM; for `CC(C)(CNC(=O)C(=O)Nc1ccc(S(C)(=O)=O)cc1)CNC(=O)c1ccc(Nc2nc(NC3(c4ccc(Cl)cc4)CC3)nc(OCC(F)(F)F)n2)cc1` [Compound 3254]: 0.01 to 10 nM; for `CC(C)(CNC(=O)C(=O)Nc1ccc(Cl)nc1)CNC(=O)c1ccc(Nc2nc(NC3(c4ccc(Cl)cc4)CC3)nc(OCC(F)(F)F)n2)cc1` [Compound 3255]: 0.01 to 10 nM. The same measure, in the same setting: the value for `CC(C)(CNC(=O)C(=O)Nc1cccnc1-n1cccn1)CNC(=O)c1ccc(Nc2nc(NC3(c4ccc(Cl)cc4)CC3)nc(OCC(F)(F)F)n2)cc1` [Compound 3256] was 0.01 to 10 nM; that for `COc1ccc(NC(=O)C(=O)NCC(C)(C)CNC(=O)c2ccc(Nc3nc(NC4(c5ccc(Cl)cc5)CC4)nc(OCC(F)(F)F)n3)cc2)cn1` [Compound 3257] was 0.01 to 10 nM; that for `CC(C)(CNC(=O)C(=O)Nc1cccnc1-c1ccccc1)CNC(=O)c1ccc(Nc2nc(NC3(c4ccc(Cl)cc4)CC3)nc(OCC(F)(F)F)n2)cc1` [Compound 3258] was 0.01 to 10 nM. The same measure, in the same setting: the value for `CC(C)OC(=O)c1ccc(NC(=O)C(=O)NCC(C)(C)CNC(=O)c2ccc(Nc3nc(NC4(c5ccc(Cl)cc5)CC4)nc(OCC(F)(F)F)n3)cc2)cc1` [Compound 3259] was 0.01 to 10 nM; that for `Cc1ccn(-c2ccccc2NC(=O)C(=O)NCC(C)(C)CNC(=O)c2ccc(Nc3nc(NC4(c5ccc(Cl)cc5)CC4)nc(OCC(F)(F)F)n3)cc2)n1` [Compound 3260] was 0.01 to 10 nM. Take `CC(C)(CNC(=O)C(=O)Nc1cccc(F)c1F)CNC(=O)c1ccc(Nc2nc(NC3(c4ccc(Cl)cc4)CC3)nc(OCC(F)(F)F)n2)cc1` [Compound 3261]: the EC50 lay in the range of 0.01 to 10 nM. Same read-out and setting: the value for `CC(C)(CNC(=O)C(=O)Nc1ccc(F)c(F)c1F)CNC(=O)c1ccc(Nc2nc(NC3(c4ccc(Cl)cc4)CC3)nc(OCC(F)(F)F)n2)cc1` [Compound 3262] was 0.01 to 10 nM; that for `CC(C)(CNC(=O)C(=O)Nc1ccc2c(c1)CCCC2=O)CNC(=O)c1ccc(Nc2nc(NC3(c4ccc(Cl)cc4)CC3)nc(OCC(F)(F)F)n2)cc1` [Compound 3263] was 0.01 to 10 nM.

As to `CC(C)(CNC(=O)C(=O)Nc1ccc(C(=O)c2ccc(N)cc2)cc1)CNC(=O)c1ccc(Nc2nc(NC3(c4ccc(Cl)cc4)CC3)nc(OCC(F)(F)F)n2)cc1` [Compound 3264], the half-maximal effective concentration (EC50) lay in the range of 0.01 to 10 nM. Still for that read-out and setting: the value for `CC(C)(CNC(=O)C(N)=O)CNC(=O)c1ccc(Nc2nc(NC3(c4ccccc4Cl)CC3)nc(OCC(F)(F)F)n2)cc1` [Compound 3265] was 10 to 1000 nM; that for `O=C(NC[C@H](NC(=O)c1ccc(Nc2nc(NC3(c4ccc(Cl)cc4)CC3)nc(OCC(F)(F)F)n2)cc1)C(=O)O)C(=O)Nc1ccc(-c2ccncc2)cc1` [Compound 3266] was 0.01 to 10 nM.

Regarding `O=C(NC[C@H](NC(=O)c1ccc(Nc2nc(NC3(c4ccc(Cl)cc4)CC3)nc(OCC(F)(F)F)n2)cc1)C(=O)O)C(=O)Nc1ccc(Cn2cncn2)cc1` [Compound 3267], the 50% effective concentration (EC50) was in the range of 0.01 to 10 nM. Same read-out and setting: the value for `O=C(NC[C@H](NC(=O)c1ccc(Nc2nc(NC3(c4ccc(Cl)cc4)CC3)nc(OCC(F)(F)F)n2)cc1)C(=O)O)C(=O)Nc1ccc(-n2ccnc2)cc1` [Compound 3268] was 0.01 to 10 nM. The same measure, in the same setting: the value for `O=C(NC[C@H](NC(=O)c1ccc(Nc2nc(NC3(c4ccccc4)CC3)nc(OCC(F)(F)F)n2)cc1)C(=O)O)C(=O)Nc1ccc(Oc2ccc(F)cc2)cc1` [Compound 3269] was 0.01 to 10 nM; that for `COc1cc(OC)nc(-c2ccc(NC(=O)C(=O)NC[C@H](NC(=O)c3ccc(Nc4nc(NC5(c6ccc(Cl)cc6)CC5)nc(OCC(F)(F)F)n4)cc3)C(=O)O)cc2)n1` [Compound 3270] was 0.01 to 10 nM; that for `CC(O)N1CCN(c2ccc(NC(=O)C(=O)NC[C@H](NC(=O)c3ccc(Nc4nc(NC5(c6ccc(Cl)cc6)CC5)nc(OCC(F)(F)F)n4)cc3)C(=O)O)cc2)CC1` (some centres unmarked) [Compound 3271] was 0.01 to 10 nM.

Take `Cc1ccccc1-c1ccc(NC(=O)C(=O)NC[C@H](NC(=O)c2ccc(Nc3nc(NC4(c5ccc(Cl)cc5)CC4)nc(OCC(F)(F)F)n3)cc2)C(=O)O)cc1` [Compound 3272]: the EC50 was in the range of 0.01 to 10 nM. On the same count and under the same terms, the same measure for `Cc1nc(-c2ccc(NC(=O)C(=O)NC[C@H](NC(=O)c3ccc(Nc4nc(NC5(c6ccc(Cl)cc6)CC5)nc(OCC(F)(F)F)n4)cc3)C(=O)O)cc2)cs1` [Compound 3275]: 0.01 to 10 nM; for `O=C(NC[C@H](NC(=O)c1ccc(Nc2nc(NC3(c4ccc(Cl)cc4)CC3)nc(OCC(F)(F)F)n2)cc1)C(=O)O)C(=O)Nc1ccc(-n2cnnn2)cc1` [Compound 3276]: 0.01 to 10 nM. The same measure, in the same setting: the same measure for `CCOCCOc1ccc(NC(=O)C(=O)NC[C@H](NC(=O)c2ccc(Nc3nc(NC4(c5ccc(Cl)cc5)CC4)nc(OCC(F)(F)F)n3)cc2)C(=O)O)cc1` [Compound 3277]: 0.01 to 10 nM. The same measure, in the same setting: the same measure for `O=C(NC[C@H](NC(=O)c1ccc(Nc2nc(NC3(c4ccc(Cl)cc4)CC3)nc(OCC(F)(F)F)n2)cc1)C(=O)O)C(=O)Nc1ccc(-c2cc[nH]n2)cc1` [Compound 3278]: 0.01 to 10 nM.

`O=C(NC[C@H](NC(=O)c1ccc(Nc2nc(NC3(c4ccc(Cl)cc4)CC3)nc(OCC(F)(F)F)n2)cc1)C(=O)O)C(=O)Nc1ccc(Cn2cccc2)cc1` [Compound 3280]: the EC50 is 0.01 to 10 nM. On the same count and under the same terms, the value for `NC(=O)NCc1ccc(NC(=O)C(=O)NC[C@H](NC(=O)c2ccc(Nc3nc(NC4(c5ccc(Cl)cc5)CC4)nc(OCC(F)(F)F)n3)cc2)C(=O)O)cc1` [Compound 3281] was 0.01 to 10 nM; that for `O=C(NC[C@H](NC(=O)c1ccc(Nc2nc(NC3(c4ccc(Cl)cc4)CC3)nc(OCC(F)(F)F)n2)cc1)C(=O)O)C(=O)Nc1ccc(-c2ccno2)cc1` [Compound 3282] was 0.01 to 10 nM. The same measure, in the same setting: the same measure for `Cn1cnnc1-c1ccc(NC(=O)C(=O)NC[C@H](NC(=O)c2ccc(Nc3nc(NC4(c5ccc(Cl)cc5)CC4)nc(OCC(F)(F)F)n3)cc2)C(=O)O)cc1` [Compound 3283]: 0.01 to 10 nM; for `O=C(NC[C@H](NC(=O)c1ccc(Nc2nc(NC3(c4ccc(Cl)cc4)CC3)nc(OCC(F)(F)F)n2)cc1)C(=O)O)C(=O)Nc1ccc(-c2c[nH]c(N3CCOCC3)n2)cc1` [Compound 3284]: 0.01 to 10 nM. Same read-out and setting: the same measure for `O=C(NC[C@H](NC(=O)c1ccc(Nc2nc(NC3(c4ccc(Cl)cc4)CC3)nc(OCC(F)(F)F)n2)cc1)C(=O)O)C(=O)Nc1ccc(Cn2ccnc2)cc1` [Compound 3285]: 0.01 to 10 nM; for `Cc1nccn1-c1ccc(NC(=O)C(=O)NC[C@H](NC(=O)c2ccc(Nc3nc(NC4(c5ccc(Cl)cc5)CC4)nc(OCC(F)(F)F)n3)cc2)C(=O)O)cc1` [Compound 3286]: 0.01 to 10 nM.
